Several values for one entry are separate records, joined by “and”; a condition that tells them apart may be missing. Identical values can stand only once. Toxic doses and inconclusive results are not listed.
System: B6C3F1 mice, ip Sarcoma M5076, median survival T/C
Experiment: NCI In Vivo Anticancer Drug Screen. Data for tumor model Sarcoma M5076 (intraperitoneal) in B6C3F1 mice
Conditions: endpoint: median survival time, schedule: Q04DX004 (ip), higher = longer survival
Experimental: The antitumor activity of compounds was measured in mice bearing transplantable tumors. Survival or tumor size were measured and the results are expressed as the measurement made in the treated group (T) divided by the measurement made in the vehicle treated control group (C). The tumor model used in this assay is Sarcoma M5076 (intraperitoneal) in B6C3F1 mice

[1] = dose: 25.0 mg/kg/injection, vehicle: saline with Tween-80
[2] = dose: 50.0 mg/kg/injection, vehicle: Klucel (hydroxypropylcellulose) (HPC)
[3] = dose: 100.0 mg/kg/injection, vehicle: Klucel (hydroxypropylcellulose) (HPC)
[4] = dose: 200.0 mg/kg/injection, vehicle: Klucel (hydroxypropylcellulose) (HPC)
[5] = dose: 400.0 mg/kg/injection, vehicle: Klucel (hydroxypropylcellulose) (HPC)
[6] = dose: 25.0 mg/kg/injection, vehicle: Klucel (hydroxypropylcellulose) (HPC)
[7] = dose: 50.0 mg/kg/injection, vehicle: saline with Tween-80
[8] = dose: 100.0 mg/kg/injection, vehicle: saline with Tween-80
[9] = dose: 200.0 mg/kg/injection, vehicle: saline with Tween-80

O=C(Nc1cccc(C(F)(F)F)c1)C(Cl)=C(Cl)Cl
T/C (dose: 37.5 mg/kg/injection, vehicle: Klucel (hydroxypropylcellulose) (HPC)): 95 % of control | T/C (dose: 75.0 mg/kg/injection, vehicle: Klucel (hydroxypropylcellulose) (HPC)): 103 % of control | T/C (dose: 150.0 mg/kg/injection, vehicle: Klucel (hydroxypropylcellulose) (HPC)): 102 % of control | T/C (dose: 300.0 mg/kg/injection, vehicle: Klucel (hydroxypropylcellulose) (HPC)): 102 % of control | T/C (dose: 600.0 mg/kg/injection, vehicle: Klucel (hydroxypropylcellulose) (HPC)): 87 % of control

COc1c(O)cc2c(c1OC)-c1ccc(SC)c(=O)cc1C(NC(C)=O)CC2 (configuration not stated)
T/C (dose: 5.0 mg/kg/injection, vehicle: Klucel (hydroxypropylcellulose) (HPC)): 154 % of control and 196 % of control | T/C (dose: 10.0 mg/kg/injection, vehicle: Klucel (hydroxypropylcellulose) (HPC)): 235 % of control and 237 % of control

COc1cc2c(c3c1c(=O)c1ccccc1n3C)C=CC(C)(C)O2
T/C (dose: 12.5 mg/kg/injection, vehicle: saline with Tween-80): 112 % of control | T/C [1]: 121 % of control | T/C (dose: 166.7 mg/kg/injection, vehicle: saline with Tween-80): 110 % of control

O=C1N(CCN2CCC3(CC2)OCCO3)CCN1c1cc(Cl)cc(Cl)c1
T/C (dose: 25.0 mg/kg/injection, vehicle: water): 104 % of control | T/C (dose: 50.0 mg/kg/injection, vehicle: water): 102 % of control

COC(=O)C1(F)C(=O)NC(=O)NC1OC (configuration not stated)
T/C [2]: 100 % of control and 102 % of control | T/C [3]: 106 % of control and 116 % of control | T/C [4]: 104 % of control and 113 % of control | T/C [5]: 109 % of control and 113 % of control | T/C (dose: 800.0 mg/kg/injection, vehicle: Klucel (hydroxypropylcellulose) (HPC)): 102 % of control and 116 % of control

CCOc1ccc(N2C(=O)C(=O)C(C(C)=O)C2=O)cc1 (configuration not stated)
T/C [2]: 102 % of control | T/C [3]: 102 % of control | T/C [4]: 101 % of control | T/C [5]: 100 % of control

CC1CC12OC(=O)N(c1cc(Cl)cc(Cl)c1)C2=O (configuration not stated)
T/C (dose: 37.5 mg/kg/injection, vehicle: saline + Tween-80 + alcohol): 101 % of control | T/C (dose: 75.0 mg/kg/injection, vehicle: saline + Tween-80 + alcohol): 99 % of control | T/C (dose: 150.0 mg/kg/injection, vehicle: saline + Tween-80 + alcohol): 99 % of control | T/C (dose: 300.0 mg/kg/injection, vehicle: saline + Tween-80 + alcohol): 95 % of control | T/C (dose: 600.0 mg/kg/injection, vehicle: saline + Tween-80 + alcohol): 91 % of control

O=c1[nH]cnc2c1cnn2CN1CCOCC1
T/C [6]: 99 % of control | T/C [2]: 101 % of control | T/C [3]: 98 % of control | T/C [4]: 112 % of control

Nc1ccc2ccc(NS(=O)(=O)N3CCCCC3)cc2c1
T/C [7]: 100 % of control | T/C [8]: 107 % of control | T/C [9]: 112 % of control | T/C (dose: 400.0 mg/kg/injection, vehicle: saline with Tween-80): 120 % of control

Cn1c(-c2ccc(Br)cc2)cc2[nH]c(=S)nc(N)c2c1=O
T/C [7]: 96 % of control | T/C [8]: 92 % of control | T/C [9]: 87 % of control

CCN(CC)CCOC(=O)c1c(C)oc2cc3c(C(=O)OCCN(CC)CC)c(C)oc3cc12
T/C [6]: 105 % of control | T/C [2]: 99 % of control | T/C [3]: 109 % of control | T/C [4]: 104 % of control | T/C [5]: 106 % of control

CO[C@@]12[C@@H]3N[C@@H]3CN1C1=C(C(=O)C(NCCc3ccccn3)=C(C)C1=O)[C@@H]2COC(N)=O
T/C (dose: 3.2 mg/kg/injection, vehicle: saline with Tween-80): 112 % of control | T/C (dose: 5.4 mg/kg/injection, vehicle: saline with Tween-80): 122 % of control | T/C [1]: 172 % of control and 197 % of control | T/C (dose: 42.0 mg/kg/injection, vehicle: saline with Tween-80): 200 % of control | T/C (dose: 69.0 mg/kg/injection, vehicle: saline with Tween-80): 280 % of control
